Results taken from US7282590B2, “Drug conjugates” (The Research Foundation of State University of New York, priority 2004, dated 2007).

Legend:
[1] = Cleavage of the disulfide bond in the drug-linker conjugate (drug release with cysteine as a model of glutathione, monitored by HPLC); format: physicochemical; settings: cysteine in buffer pH 7.0 / CH3CN, room temperature, after 2 hours
Procedure: In order to confirm that the designed drug-release mechanism works under physiological conditions, a control experiment was performed using an anticancer linker drug conjugate and cysteine as a model of glutathione. The results of the experiment below provide clear evidence that the drug is released according to the desired mechanism of the invention.
To a solution of the drug-linker conjugate, 2′-(5-fluoro-2-methyldisulfanylphenyl)acetyl-3′-dephenyl-3′-(2-methylpropyl)-10-propanoyldocetaxel, (4.8 mg, 0.0045 mmol) in CH3CN (1.1 mL) was added cysteine (2.20 mg, 0.018 mmol) in buffer (pH 7.0, 0.56 mL) solution. The mixture was stirred at room temperature. The progress of the disulfide cleavage and drug release process was monitored by HPLC [Conditions: C-18 column. Flow rate: H2O, 0.6 mL/min; CH3CN, 0.4 mL/min., ambient temperature] periodically. The formations of thiolactone (5-fluoro-3H-benzo[b]thiophen-2-one) (retention time=9.05 min) and taxoid (3′-dephenyl-3′-(2-methylpropyl)-10-propanoyldocetaxel) (retention time=14.01 min) as well as the disappearance of the drug-linker conjugate (retention time=18.20 min) was clearly observed.

Molecule | disappearance of the drug-linker conjugate (disulfide cleavage and drug release: release of the taxoid, formation of the thiolactone) [1] | melting point [°C]
2′-(5-fluoro-2-methyldisulfanylphenyl)acetyl-3′-dephenyl-3′-(2-methylpropyl)-10-propanoyldocetaxel | completely disappeared | –
CC(C)(CC(=O)O)c1ccccc1SSc1ccccn1 [Example 7, 3-Methyl-3-[2-(pyridine-2-yldisulfanyl)phenyl]butanoic acid] | – | 122 to 125
